The subject of data set [1] is NCI-H1975. Briefly: Cytotoxicity against human NCI-H1975 cells assessed as inhibition of cell viability incubated for 48 hrs by MTT assay. The data set is classed as functional, cell-based. The note with it: NCI-H1975, 48 h. A general note: Tetrazolium assays rely on reduction of a dye to a coloured formazan, in cell work by metabolically active cells.
Data set [2] has as its system NCI-H460. Description: Cytotoxicity against human NCI-H460 cells assessed as inhibition of cell viability incubated for 48 hrs by MTT assay. The class given is functional, cell-based. The note with it: NCI-H460, 48 h.
The subject of data set [3] is MCF7. Description: Cytotoxicity against human MCF7 cells assessed as inhibition of cell viability incubated for 48 hrs by MTT assay. The data set is classed as functional, cell-based. The note with it: MCF7, 48 h.
Data set [4] has as its system A549. Description: Cytotoxicity against human A549 cells assessed as inhibition of cell viability incubated for 48 hrs by MTT assay. The data set is classed as functional, cell-based. The note with it: A549, 48 h.
Data set [5] is described as follows: Cytotoxicity against human BEAS-2B cells assessed as inhibition of cell viability incubated for 48 hrs by MTT assay. The class given is toxicity, cell-based.
Another data set has as its system BEAS-2B. Description: Cytotoxicity against human BEAS-2B cells assessed as cell growth inhibition incubated for 48 hrs by MTT assay. The data set is classed as toxicity, cell-based.
Data set [6] relates to NCI-H1975. Briefly: Cytotoxicity against human NCI-H1975 cells assessed as cell growth inhibition incubated for 48 hrs by MTT assay relative to control. The data set is classed as functional.
The subject of data set [7] is A549. Description: Cytotoxicity against human A549 cells assessed as cell growth inhibition incubated for 48 hrs by MTT assay. The class given is functional, cell-based.
In data set [8] the test system is NCI-H460. Briefly: Cytotoxicity against human NCI-H460 cells assessed as cell growth inhibition incubated for 48 hrs by MTT assay. The data set is classed as functional, cell-based.
Data set [9] concerns MCF7. Briefly: Cytotoxicity against human MCF7 cells assessed as cell growth inhibition incubated for 48 hrs by MTT assay. The data set is classed as functional, cell-based.
In data set [10] the test system is NCI-H1975. Briefly: Cytotoxicity against human NCI-H1975 cells assessed as cell growth inhibition incubated for 48 hrs by MTT assay. The class given is functional, cell-based.
For data set [11], the system named is NCI-H1975. Description: Inhibition of cell viability in human NCI-H1975 cells assessed as effect on cell index at 80 nM by real-time cell analysis. The class given is functional, cell-based.
Data set [12] in a line: Drug accumulation in mitochondria of human NCI-H1975 cells at 120 nM incubated for 5 hrs by Red CMXRos probe based analysis. The class given is ADME. The note with it: nci-h1975, 5 h, 0.12 µM.

The source made the active and inactive calls. The calls are words filed in the database; no cut-off is given here.

A word on the IC50: it is the midpoint of a concentration-inhibition curve.

`CC(C)[C@]12O[C@H]1[C@@H]1O[C@]13[C@]1(O[C@H]1C[C@H]1C4=C(CC[C@@]13C)C(=O)OC4)[C@]2(O)COC(=O)CCCCCC[P+](c1ccccc1)(c1ccccc1)c1ccccc1`: the IC50 is over 30 µM with NCI-H1975 [1], over 50 µM in the data set with NCI-H460 [2], over 50 µM with MCF7 [3] and 38.4 µM in the data set on A549 [4]. Further, in data set [5], the IC50 at 48 h is over 30 µM.

With `CC(C)[C@]12O[C@H]1[C@@H]1O[C@]13[C@]1(O[C@H]1C[C@H]1C4=C(CC[C@@]13C)C(=O)OC4)[C@@H]2OC(=O)CCCCC[n+]1ccc(/C=C/c2c[nH]c3ccccc23)cc1`, the IC50 is 2.86 µM in the data set with NCI-H1975 [1], 3.12 µM in the data set with NCI-H460 [2], 16.7 µM in the data set with MCF7 [3] and over 50 µM in the data set on A549 [4]. In data set [5], the IC50 at 48 h worked out at 94.3 µM.

Turning to `CC(C)[C@]12O[C@H]1[C@@H]1O[C@]13[C@]1(O[C@H]1C[C@H]1C4=C(CC[C@@]13C)C(=O)OC4)[C@@H]2OC(=O)CCCCC[P+](c1ccccc1)(c1ccccc1)c1ccccc1.[Br-]`, the “inhibition (INH)” value with BEAS-2B is “Dose-Dependent Effect”. Further, the IC50 is 0.14 µM in the data set with NCI-H1975 [1], over 10 µM in the data set on NCI-H460 [2], over 10 µM in the data set on MCF7 [3] and over 10 µM with A549 [4]. In the data set with NCI-H1975 [6], the Imax was about 65%. Also, the inhibition entry in the data set with A549 [7], with NCI-H460 [8], in the data set on MCF7 [9] and in the data set with NCI-H1975 [10] was “Dose-Dependent Effect” in each case. Besides, the IC50 at 48 h in data set [5] was over 10 µM.

Take `CC(C)[C@]12O[C@H]1[C@@H]1O[C@]13[C@]1(O[C@H]1C[C@H]1C4=C(CC[C@@]13C)C(=O)OC4)[C@]2(O)COC(=O)CCCCCCCC[P+](c1ccccc1)(c1ccccc1)c1ccccc1`: the IC50 in the data set on NCI-H1975 [1] was determined as 24.7 µM; in the data set on NCI-H460 [2] it was 27.7 µM; in the data set with MCF7 [3], 20.9 µM; in the data set with A549 [4] it was 21.7 µM. Moreover, the IC50 at 48 h in data set [5] was 23.4 µM.

As for `CC(C)[C@]12O[C@H]1[C@@H]1O[C@]13[C@]1(O[C@H]1C[C@H]1C4=C(CC[C@@]13C)C(=O)OC4)[C@@H]2OC(=O)CCCCCC[n+]1ccc(/C=C/c2c[nH]c3ccccc23)cc1`, the concentration for half-maximal inhibition (IC50) in the data set on NCI-H1975 [1] was found to be 0.27 µM; with NCI-H460 [2], 11.9 µM; with A549 [4], 47.8 µM. The IC50 at 48 h in data set [5] was determined as 27.9 µM.

On to `CC(C)[C@]12O[C@H]1[C@@H]1O[C@]13[C@]1(O[C@H]1C[C@H]1C4=C(CC[C@@]13C)C(=O)OC4)[C@]2(O)C=O`, for which the IC50 in the data set on NCI-H1975 [1] was over 50 µM; in the data set with NCI-H460 [2] it was over 50 µM; with MCF7 [3], over 100 µM; in the data set with A549 [4] it was over 100 µM. For the same compound, in data set [5], the IC50 at 48 h is over 100 µM.

In the case of `CC(C)[C@]12O[C@H]1[C@@H]1O[C@]13[C@]1(O[C@H]1C[C@H]1C4=C(CC[C@@]13C)C(=O)OC4)[C@@H]2OC(=O)CCCC[n+]1ccc(/C=C/c2c[nH]c3ccccc23)cc1`, the IC50 with NCI-H1975 [1] is 5.74 µM; with NCI-H460 [2], over 50 µM; in the data set on MCF7 [3] it was 47.2 µM; with A549 [4] it was over 50 µM. Moreover, the IC50 at 48 h in [5] was found to be 35.7 µM.

As to `COc1cccc2c1C(=O)c1c(O)c3c(c(O)c1C2=O)C[C@@](O)(C(=O)CO)C[C@@H]3O[C@H]1C[C@H](N)[C@H](O)[C@H](C)O1` [DOXORUBICIN], the results for the IC50 with NCI-H1975 [1], in the data set on NCI-H460 [2] and in the data set on A549 [4] were 2.64 µM, 0.581 µM and 2.54 µM, respectively. Also, in data set [5], the IC50 at 48 h worked out at 42 µM.

Turning to `C1=CCC(P(c2ccccc2)c2ccccc2)C=C1` (stereo not given), the IC50 in the data set on NCI-H1975 [1], in the data set with NCI-H460 [2], in the data set with MCF7 [3] and in the data set with A549 [4] was over 100 µM each time. For the same compound, the IC50 at 48 h in data set [5] is over 100 µM.

As for `CC(C)[C@]12O[C@H]1[C@@H]1O[C@]13[C@]1(O[C@H]1C[C@H]1C4=C(CC[C@@]13C)C(=O)OC4)[C@@H]2OC(=O)CCCCCCCCCC[n+]1ccc(/C=C/c2c[nH]c3ccccc23)cc1`, the results for the IC50 in the data set with NCI-H1975 [1], in the data set with MCF7 [3] and in the data set with A549 [4] were 0.34 µM, 5.26 µM and over 50 µM, respectively. For the same compound, in [5], the IC50 at 48 h came out at 12.7 µM.

`C[n+]1ccc(/C=C/c2c[nH]c3ccccc23)cc1`: the IC50 in the data set on NCI-H1975 [1] was over 50 µM; with NCI-H460 [2], over 50 µM; with MCF7 [3] it was over 100 µM; with A549 [4] it was over 100 µM. For the same compound, the IC50 at 48 h in [5] is over 100 µM.

Regarding `CC(C)[C@]12O[C@H]1[C@@H]1O[C@]13[C@]1(O[C@H]1C[C@H]1C4=C(CC[C@@]13C)C(=O)OC4)[C@]2(O)CO`, the IC50 in the data set with NCI-H1975 [1] is over 100 µM; in the data set with NCI-H460 [2], over 50 µM; in the data set with MCF7 [3] it was over 100 µM; in the data set with A549 [4], over 100 µM. In addition, the IC50 at 48 h in data set [5] was over 100 µM.

Take `CC(C)[C@]12O[C@H]1[C@@H]1O[C@]13[C@]1(O[C@H]1C[C@H]1C4=C(CC[C@@]13C)C(=O)OC4)[C@]2(O)COC(=O)CCCCCCC[P+](c1ccccc1)(c1ccccc1)c1ccccc1`: the IC50 is 24.9 µM in the data set on NCI-H1975 [1], 29.9 µM with NCI-H460 [2], over 100 µM in the data set on MCF7 [3] and 27.3 µM in the data set with A549 [4]. The IC50 at 48 h in [5] amounted to 21.7 µM.

In the case of `CC(C)[C@]12O[C@H]1[C@@H]1O[C@]13[C@]1(O[C@H]1C[C@H]1C4=C(CC[C@@]13C)C(=O)OC4)[C@@H]2OC(=O)CCCCCCCCC[n+]1ccc(/C=C/c2c[nH]c3ccccc23)cc1`, the IC50 is 0.44 µM in the data set with NCI-H1975 [1], 5.09 µM with NCI-H460 [2], 6.24 µM with MCF7 [3] and 24.9 µM in the data set on A549 [4]. Besides, in data set [5], the IC50 at 48 h is 11.9 µM.

With `CC(C)[C@]12O[C@H]1[C@@H]1O[C@]13[C@]1(O[C@H]1C[C@H]1C4=C(CC[C@@]13C)C(=O)OC4)[C@]2(O)COC(=O)CCCCC[P+](c1ccccc1)(c1ccccc1)c1ccccc1`, the IC50 with NCI-H1975 [1] was over 100 µM; with NCI-H460 [2], over 50 µM; with MCF7 [3], over 50 µM; with A549 [4], over 100 µM. Moreover, the IC50 at 48 h in data set [5] is over 50 µM.

As for `CC(C)[C@]12O[C@H]1[C@@H]1O[C@]13[C@]1(O[C@H]1C[C@H]1C4=C(CC[C@@]13C)C(=O)OC4)[C@@H]2OC(=O)CCCCCCC[n+]1ccc(/C=C/c2c[nH]c3ccccc23)cc1.[Br-]`, the IC50 in the data set on NCI-H1975 [1] was 0.4 µM; in the data set with NCI-H460 [2] it was 17.5 µM; in the data set on MCF7 [3], 7.09 µM; in the data set with A549 [4] it was over 50 µM. Further, the inhibition result in the data set on NCI-H1975 [11] was “Active”. The Drug uptake entry in data set [12] is given as “Active”. Further, the IC50 at 48 h in data set [5] came to 48.8 µM.

As for `CC(C)[C@]12O[C@H]1[C@@H]1O[C@]13[C@]1(O[C@H]1C[C@H]1C4=C(CC[C@@]13C)C(=O)OC4)[C@]2(O)COC(=O)CCCCCCCCC[P+](c1ccccc1)(c1ccccc1)c1ccccc1`, the IC50 with NCI-H1975 [1] amounted to 18.6 µM; in the data set with NCI-H460 [2], 26.7 µM; in the data set on MCF7 [3] it was 30.2 µM; with A549 [4], 23 µM. In addition, the IC50 at 48 h in data set [5] is 23.6 µM.

For the compound `CC(C)[C@]12O[C@H]1[C@@H]1O[C@]13[C@]1(O[C@H]1C[C@H]1C4=C(CC[C@@]13C)C(=O)OC4)[C@]2(O)COC(=O)CCCC[P+](c1ccccc1)(c1ccccc1)c1ccccc1`, the IC50 in the data set with NCI-H1975 [1], in the data set with NCI-H460 [2], in the data set on MCF7 [3] and in the data set with A549 [4] was over 100 µM in each case. Also, the IC50 at 48 h in [5] was over 100 µM.

(Values after ChEMBL document CHEMBL5537157, “Selective Antitumor Effect and Lower Toxicity of Mitochondrion-Targeting Derivatization of Triptolide” (J Med Chem, 2024).)
